Assay results taken from patent publication US9993494B2, “Compositions and methods for treating fibrotic disease” (eFFECTOR Therapeutics, Inc., priority 2014, dated 2018).

Tested on: normal human lung fibroblasts
Assay: Ribosomal profiling: translational efficiency in TGFβ-treated fibroblasts
Assay type: cell-based
Conditions: TGFβ-treated fibroblasts
Outline: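 Genome-wide RPF and total RNA libraries (ARTseq, RNA-Seq) were made from lysates of cycloheximide-treated, PBS-washed cells. After trimming and human-genome mapping, per-gene coding-region counts were compared between RPF and RNA for translational efficiency. Genes scoring low in either fraction were dropped.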

Question: How did the “effect in renormalizing the translational profile of the gene” value (gene RPS6 (ENSG00000137154)) turn out when `Cc1cc(C2CCCCC2)n(O)c(=O)c1.NCCO` [CPX, ciclopirox oloamine] was run?
Answer: − (− = <0.9)

Question: What about the “effect in renormalizing the translational profile of the gene” value (gene RPS6KA5 (ENSG00000100784)) of the same compound?
Answer: − (− = <0.9)

Question: And the “effect in renormalizing the translational profile of the gene” value (gene RPS7 (ENSG00000171863))?
Answer: − (− = <0.9)

Question: What about the “effect in renormalizing the translational profile of the gene” value (gene RPS8 (ENSG00000142937)) of the same compound?
Answer: − (− = <0.9)

Question: And the “effect in renormalizing the translational profile of the gene” value (gene RPS9 (ENSG00000170889))?
Answer: − (− = <0.9)

Question: What about the “effect in renormalizing the translational profile of the gene” value (gene RPS10 (ENSG00000124614)) of the same compound?
Answer: − (− = <0.9)

Question: And the “effect in renormalizing the translational profile of the gene” value (gene RPS11 (ENSG00000142534))?
Answer: − (− = <0.9)

Question: And the “effect in renormalizing the translational profile of the gene” value (gene RPS12 (ENSG00000112306))?
Answer: − (− = <0.9)

Question: What about the “effect in renormalizing the translational profile of the gene” value (gene RPS13 (ENSG00000110700)) of the same compound?
Answer: − (− = <0.9)

Question: What about the “effect in renormalizing the translational profile of the gene” value (gene RPS14 (ENSG00000164587)) of the same compound?
Answer: − (− = <0.9)

Question: And the “effect in renormalizing the translational profile of the gene” value (gene RPS15 (ENSG00000115268))?
Answer: − (− = <0.9)

Question: And the “effect in renormalizing the translational profile of the gene” value (gene RPS15A (ENSG00000134419))?
Answer: − (− = <0.9)

Question: And the “effect in renormalizing the translational profile of the gene” value (gene RPS16 (ENSG00000105193))?
Answer: − (− = <0.9)

Question: What about the “effect in renormalizing the translational profile of the gene” value (gene RPS18 (ENSG00000231500)) of the same compound?
Answer: − (− = <0.9)

Question: And the “effect in renormalizing the translational profile of the gene” value (gene RPS19 (ENSG00000105372))?
Answer: − (− = <0.9)

Question: And the “effect in renormalizing the translational profile of the gene” value (gene RPS20 (ENSG00000008988))?
Answer: − (− = <0.9)

Question: What about the “effect in renormalizing the translational profile of the gene” value (gene RPS21 (ENSG00000171858)) of the same compound?
Answer: − (− = <0.9)

Question: And the “effect in renormalizing the translational profile of the gene” value (gene RPS23 (ENSG00000186468))?
Answer: − (− = <0.9)

Question: And the “effect in renormalizing the translational profile of the gene” value (gene RPS24 (ENSG00000138326))?
Answer: − (− = <0.9)

Question: What about the “effect in renormalizing the translational profile of the gene” value (gene RPS25 (ENSG00000118181)) of the same compound?
Answer: − (− = <0.9)

Question: And the “effect in renormalizing the translational profile of the gene” value (gene RPS26 (ENSG00000197728))?
Answer: − (− = <0.9)

Question: What about the “effect in renormalizing the translational profile of the gene” value (gene RPS27 (ENSG00000177954)) of the same compound?
Answer: − (− = <0.9)

Question: And the “effect in renormalizing the translational profile of the gene” value (gene RPS27A (ENSG00000143947))?
Answer: − (− = <0.9)

Question: And the “effect in renormalizing the translational profile of the gene” value (gene RPS28 (ENSG00000233927))?
Answer: + (+ = 0.9 to 1.5)

Question: What about the “effect in renormalizing the translational profile of the gene” value (gene RPS29 (ENSG00000213741)) of the same compound?
Answer: − (− = <0.9)

Question: And the “effect in renormalizing the translational profile of the gene” value (gene RPSA (ENSG00000168028))?
Answer: − (− = <0.9)

Question: What about the “effect in renormalizing the translational profile of the gene” value (gene RTN2 (ENSG00000125744)) of the same compound?
Answer: − (− = <0.9)

Question: And the “effect in renormalizing the translational profile of the gene” value (gene SEMA3A (ENSG00000075213))?
Answer: − (− = <0.9)

Question: And the “effect in renormalizing the translational profile of the gene” value (gene SGIP1 (ENSG00000118473))?
Answer: − (− = <0.9)

Question: What about the “effect in renormalizing the translational profile of the gene” value (gene SH3BGR (ENSG00000185437)) of the same compound?
Answer: − (− = <0.9)

Question: And the “effect in renormalizing the translational profile of the gene” value (gene SHC3 (ENSG00000148082))?
Answer: +++ (+++ = >2.0)

Question: And the “effect in renormalizing the translational profile of the gene” value (gene SLC2A12 (ENSG00000146411))?
Answer: − (− = <0.9)

Question: And the “effect in renormalizing the translational profile of the gene” value (gene SLC7A7 (ENSG00000155465))?
Answer: − (− = <0.9)

Question: And the “effect in renormalizing the translational profile of the gene” value (gene SLC15A3 (ENSG00000110446))?
Answer: − (− = <0.9)

Question: And the “effect in renormalizing the translational profile of the gene” value (gene SLC25A6 (ENSG00000169100))?
Answer: − (− = <0.9)

Question: And the “effect in renormalizing the translational profile of the gene” value (gene SLC40A1 (ENSG00000138449))?
Answer: ++ (++ = 1.5 to 2.0)

Question: And the “effect in renormalizing the translational profile of the gene” value (gene SMO (ENSG00000128602))?
Answer: − (− = <0.9)

Question: And the “effect in renormalizing the translational profile of the gene” value (gene SNRPA (ENSG00000077312))?
Answer: − (− = <0.9)

Question: What about the “effect in renormalizing the translational profile of the gene” value (gene SOX5 (ENSG00000134532)) of the same compound?
Answer: − (− = <0.9)

Question: And the “effect in renormalizing the translational profile of the gene” value (gene SOX6 (ENSG00000110693))?
Answer: − (− = <0.9)

Question: And the “effect in renormalizing the translational profile of the gene” value (gene SPATA6 (ENSG00000132122))?
Answer: − (− = <0.9)

Question: And the “effect in renormalizing the translational profile of the gene” value (gene STAMBPL1 (ENSG00000138134))?
Answer: + (+ = 0.9 to 1.5)

Question: What about the “effect in renormalizing the translational profile of the gene” value (gene STS (ENSG00000101846)) of the same compound?
Answer: − (− = <0.9)

Question: And the “effect in renormalizing the translational profile of the gene” value (gene SYNE2 (ENSG00000054654))?
Answer: − (− = <0.9)

Question: What about the “effect in renormalizing the translational profile of the gene” value (gene TAF1D (ENSG00000166012)) of the same compound?
Answer: − (− = <0.9)

Question: And the “effect in renormalizing the translational profile of the gene” value (gene TDG (ENSG00000139372))?
Answer: − (− = <0.9)

Question: What about the “effect in renormalizing the translational profile of the gene” value (gene TEN1 (ENSG00000257949)) of the same compound?
Answer: − (− = <0.9)

Question: And the “effect in renormalizing the translational profile of the gene” value (gene TET2 (ENSG00000168769))?
Answer: − (− = <0.9)

Question: And the “effect in renormalizing the translational profile of the gene” value (gene TET3 (ENSG00000187605))?
Answer: − (− = <0.9)

Question: What about the “effect in renormalizing the translational profile of the gene” value (gene TGFBI (ENSG00000120708)) of the same compound?
Answer: − (− = <0.9)

Question: And the “effect in renormalizing the translational profile of the gene” value (gene THBS3 (ENSG00000169231))?
Answer: − (− = <0.9)

Question: What about the “effect in renormalizing the translational profile of the gene” value (gene THG1L (ENSG00000113272)) of the same compound?
Answer: − (− = <0.9)

Question: And the “effect in renormalizing the translational profile of the gene” value (gene TIMM9 (ENSG00000100575))?
Answer: − (− = <0.9)

Question: What about the “effect in renormalizing the translational profile of the gene” value (gene TKT (ENSG00000163931)) of the same compound?
Answer: − (− = <0.9)

Question: And the “effect in renormalizing the translational profile of the gene” value (gene TMTC1 (ENSG00000133687))?
Answer: − (− = <0.9)

Question: And the “effect in renormalizing the translational profile of the gene” value (gene TOMM7 (ENSG00000196683))?
Answer: + (+ = 0.9 to 1.5)

Question: And the “effect in renormalizing the translational profile of the gene” value (gene TOP2A (ENSG00000131747))?
Answer: − (− = <0.9)

Question: And the “effect in renormalizing the translational profile of the gene” value (gene TPGS1 (ENSG00000141933))?
Answer: − (− = <0.9)

Question: And the “effect in renormalizing the translational profile of the gene” value (gene TPM2 (ENSG00000198467))?
Answer: − (− = <0.9)

Question: And the “effect in renormalizing the translational profile of the gene” value (gene TPT1 (ENSG00000133112))?
Answer: − (− = <0.9)

Question: What about the “effect in renormalizing the translational profile of the gene” value (gene TRERF1 (ENSG00000124496)) of the same compound?
Answer: − (− = <0.9)

Question: And the “effect in renormalizing the translational profile of the gene” value (gene UBA52 (ENSG00000221983))?
Answer: − (− = <0.9)

Question: And the “effect in renormalizing the translational profile of the gene” value (gene UQCRB (ENSG00000156467))?
Answer: − (− = <0.9)

Question: What about the “effect in renormalizing the translational profile of the gene” value (gene UTRN (ENSG00000152818)) of the same compound?
Answer: − (− = <0.9)

Question: What about the “effect in renormalizing the translational profile of the gene” value (gene VIM (ENSG00000026025)) of the same compound?
Answer: − (− = <0.9)

Question: What about the “effect in renormalizing the translational profile of the gene” value (gene ZNF581 (ENSG00000171425)) of the same compound?
Answer: − (− = <0.9)
